Data published in publication PMC11171218, “N-Benzylated 5-Hydroxybenzothiophene-2-carboxamides as Multi-Targeted Clk/Dyrk Inhibitors and Potential Anticancer Agents” (Cancers, 2024).
pIC50: −log10 of the molar value.

Experiments:
[1] = Cell viability in normal cells, HaCaT; assay type: cell-based; conditions: human, HaCaT normal human keratinocytes; for viability at 20 µM: mean (n = 3); for pIC50: 50% inhibition
Method: (§1) All cells were purchased from Bioresource Collection and Research Center (Hsinchu, Taiwan) and cultured in corresponding media supplemented with 10% fetal bovine serum, 1 × Antibiotic-Antimycotic at 37 °C in a humidified incubator with 5% CO2. […] T24 cells were cultured in McCoy’s 5a media. IEC-6 cells were cultured in DMEM media supplemented with 5% fetal bovine serum, 1 × Antibiotic–Antimycotic, and 0.1 unit/mL insulin.
(§2) Cells were incubated with the Cell Counting Kit-8 (CCK-8) reagent (TargetMol, Boston, MA, USA) at 37 °C for 2 h. The cell viability was determined by spectrophotometer at 450 nm.

[2] = test system: Bax; assay: Western blot, Bax in T24 cells; assay type: cell-based, human; conditions: 10–50 μM, 24 h
Excerpt: (§3) Cell lysates were sequentially suspended in commercial RIPA Buffer (pH 7.4; Cat# RB4475, Bio Basic, Markham, Ontario, Canada) containing Protease Inhibitor Cocktail and PhosSTOP (Merck, Darmstadt, Germany), boiled in sodium dodecyl sulphate (SDS) sample buffer, separated by SDS-polyacrylamide gel electrophoresis (PAGE), and electrophoresed onto a PVDF membrane. Antibodies used in this study were Bcl-2 (Cat#A19693, RRID: AB_2862738) and Bax (Cat# A0207, RRID: AB_2757021) from ABclonal (Boston, MA, USA); cleaved caspase-3 (Cat# 9662, RRID: AB_331439) and GAPDH (Cat# 8884, RRID:AB_11129865) from Cell Signaling Technology (Beverly, MA, USA). The labeled signals were determined using HRP-conjugated secondary antibodies and the Bio-rad ChemiDoc™ MP Imaging System (Berkeley, CA, USA).
(§4) Figure 4 Examining the effect of 12 and 17 on proapoptotic and antiapoptotic pathways. T24 cells were treated with DMSO (0.1%), 12 (30–50 µM), or 17 (30–50 µM) for 24 h. Expression levels of cleaved caspase-3, Bax, Bcl-2, and GAPDH were analyzed by Western blot by corresponding antibodies. The quantitation of the cleaved caspase-3/GAPDH, Bax/GAPDH, and Bcl-2/GAPDH ratio are shown. All data are expressed as the mean ± S.E.M. (n = 3). * p < 0.05, ** p < 0.01, *** p < 0.001 compared with the DMSO group.

[3] = Cell viability in normal cells, IEC-6; assay type: cell-based; conditions: rat, IEC-6 rat intestine epithelial cells (normal cells); for viability at 20 µM: mean (n = 3); for pIC50: 50% inhibition
Method: as §1, §2

[4] = test system: Bcl-2; assay: Western blot, Bcl-2 in T24 cells; assay type: cell-based, human; conditions: for Decrease in the antiapoptotic marker Bcl-2: 50 μM; for Expression of antiapoptotic protein Bcl-2: 10–50 μM, 24 h, Western blot
Excerpt: as §3, §4

[5] = test system: T24 cells; assay: Apoptosis assay (Annexin V-FITC/PI, flow cytometry); assay type: cell-based, human; conditions: 24 h
Method: Apoptosis was examined by Annexin V-FITC/PI Apoptosis Kit (Cat# E-CK-A211, Elabscience, Houston, TX, USA) following the manufacturer’s protocol and analyzed by flow cytometry.
Figure 3 Annexin V and PI staining in T24 cells to investigate if compounds 12 and 17 could induce apoptotic death. T24 cells were treated with DMSO (0.1%), 12 (30–50 µM), or 17 (30–50 µM) for 24 h and then stained with Annexin V-FITC antibody and PI. The Annexin V-positive apoptotic cells were monitored using flow cytometry. All data are expressed as the mean ± S.E.M. (n = 3). * p < 0.05, ** p < 0.01 compared with the DMSO group. […] Best reading, upper row: Q1-UL 0.1%, Q1-UR 4.5%, Q1-LL 84.7%, Q1-LR 10.7%. Lower row: Q1-UL 0.2%, Q1-UR 5.1%, Q1-LL 84.9%, Q1-LR 9.8%. They are left out of lines because no compound is present.

[6] = test system: cleaved caspase-3; assay: Western blot, cleaved caspase-3 in T24 cells; assay type: cell-based, human; conditions: 10–50 μM, 24 h
Excerpt: as §3, §4

[7] = test system: T24 cells; assay: Cell cycle assay (PI staining, flow cytometry); assay type: cell-based, human; conditions: 30–50 µM, 24 h
Method: Cells were fixed with 75% ethanol and then stained with 50 μg/mL propidium iodide (PI; Cat# P4170, Sigma-Aldrich, St. Louis, MO, USA) at room temperature for 1 h. Cell cycle was analyzed by flow cytometry.
Figure 2 Analysis of cell cycle progression upon treatment with compounds 12 and 17. T24 cells were treated with DMSO (0.1%), 12 (30–50 µM), or 17 (30–50 µM) for 24 h. Cell cycle was examined by propidium iodide (PI) staining and flow cytometry. All data are expressed as the mean ± S.E.M. (n = 3).

**Q.** Which results are given for COc1cccc(CNC(=O)c2cc3cc(O)ccc3s2)c1 [Compound 12, 5-Hydroxy-N-(3-methoxybenzyl)benzo[b]thiophene-2-carboxamide]?
**A.** viability at 20 µM [1]: 67.6%; pIC50 [1]: < 4.70; Level of Bax [2]: increased the proapoptotic levels of cleaved caspase-3 and Bax; viability at 20 µM [3]: 96%; pIC50 [3]: < 4.70; Decrease in the antiapoptotic marker Bcl-2 [4]: approximately 0.5 fold; Expression of antiapoptotic protein Bcl-2 [4]: decreased the expression of the antiapoptotic protein, Bcl-2; Apoptotic cell population (Annexin V-positive) ([5]; 50 µM): increased the apoptotic cell population; Level of cleaved caspase-3 [6]: increased the proapoptotic levels of cleaved caspase-3 and Bax; Effect on cell cycle progression [7]: much weaker than those of compound 17

**Q.** Which viability at 20 µM [1] does the source give for O=C(NCc1cc(F)cc(F)c1)c1cc2cc(O)ccc2s1 [Compound 17, N-(3,5-Difluorobenzyl)-5-hydroxybenzo[b]thiophene-2-carboxamide] here?
**A.** The viability at 20 µM was 64.9%.

**Q.** What about the pIC50 [1] of the same compound?
**A.** Its pIC50 is < 4.70.

**Q.** And the “Level of Bax” value [2]?
**A.** The value was “increased the proapoptotic levels of cleaved caspase-3 and Bax”.

**Q.** And the viability at 20 µM [3]?
**A.** The viability at 20 µM was 76.8%.

**Q.** What about the pIC50 [3] of the same compound?
**A.** The pIC50 was < 4.70.

**Q.** What about the “Decrease in the antiapoptotic marker Bcl-2” value [4] of the same compound?
**A.** The value was “approximately 0.5 fold”.

**Q.** What about the “Expression of antiapoptotic protein Bcl-2” value [4] of the same compound?
**A.** The value was “decreased the expression of the antiapoptotic protein, Bcl-2”.

**Q.** What about the “Apoptotic cell population (Annexin V-positive)” value ([5]; 30 and 50 μM) of the same compound?
**A.** The value was “dose-dependently increased the apoptotic cell population”.

**Q.** And the “Level of cleaved caspase-3” value [6]?
**A.** The value was “increased the proapoptotic levels of cleaved caspase-3 and Bax”.

**Q.** What about the “Effect on cell cycle progression” value [7] of the same compound?
**A.** Its value is “retain the cells in the G2/M phase”.
